# Measurements as given in patent US11161837B2, “Benzofuran derivatives for the treatment of hepatitis C” (BRISTOL-MYERS SQUIBB COMPANY, priority 2016, dated 2021).
# Experiments:
# [1] = target: T1, NS5B proteins of HCV genotype 1b (Con1) (Hepatitis C virus genotype 1b, UniProt Q9WMX2); experiment: HCV NS5B RdRp enzyme assay; type: biochemical; conditions: 1b enzyme
# T1 construct: Each untagged protein was expressed with an 18 amino acid C-terminal truncation to enhance the solubility; made in house; host or cells: E. coli BL21(DE3), pET21a
# Procedure: HCVNS5B RdRp Cloning, Expression, and Purification.
# The cDNA encoding NS5B proteins of HCV genotype 1b (Con1), a genotype 1b variant with amino acid 316 mutated from cysteine to asparagine, and genotype 2a (JFH-1), were cloned into the pET21a expression vector. Each untagged protein was expressed with an 18 amino acid C-terminal truncation to enhance the solubility. The E. coli competent cell line BL21(DE3) was used for expression of the protein. Cultures were grown at 37° C. for ˜4 hours until the cultures reached an optical density of 2.0 at 600 nm. The cultures were cooled to 20° C. and induced with 1 mM IPTG. Fresh ampicillin was added to a final concentration of 50 μg/mL and the cells were grown overnight at 20° C.
# Cell pellets (3 L) were lysed for purification to yield 15-24 mgs of purified NS5B. The lysis buffer consisted of 20 mM Tris-HCl, pH 7.4, 500 mM NaCl, 0.5% triton X-100, 1 mM DTT, 1 mM EDTA, 20% glycerol, 0.5 mg/mL lysozyme, 10 mM MgCl2, 15 ug/mL deoxyribonuclease I, and Complete TM protease inhibitor tablets (Roche). After addition of the lysis buffer, frozen cell pellets were resuspended using a tissue homogenizer. To reduce the viscosity of the sample, aliquots of the lysate were sonicated on ice using a microtip attached to a Branson sonicator. The sonicated lysate was centrifuged at 100,000×g for 30 minutes at 4° C. and filtered through a 0.2 μm filter unit (Corning).
# The protein was purified using two sequential chromatography steps: Heparin sepharose CL-6B and polyU sepharose 4B. The chromatography buffers were identical to the lysis buffer but contained no lysozyme, deoxyribonuclease I, MgCl2 or protease inhibitor and the NaCl concentration of the buffer was adjusted according to the requirements for charging the protein onto the column. Each column was eluted with a NaCl gradient which varied in length from 5-50 column volumes depending on the column type. After the final chromatography step, the resulting purity of the enzyme is >90% based on SDS-PAGE analysis. The enzyme was aliquoted and stored at −80° C.
# HCVNS5B RdRp Enzyme Assay.
# An on-bead solid phase homogeneous assay was used in a 384-well format to assess NS5B inhibitors (WangY-K, Rigat K, Roberts S, and Gao M (2006) Anal Biochem, 359: 106-111). The biotinylated oligo dT12 primer was captured on streptavidin-coupled imaging beads (GE, RPNQ0261) by mixing primer and beads in 1× buffer and incubating at room temperature for three hours. Unbound primer was removed after centrifugation. The primer-bound beads were resuspended in 3× reaction mix (20 mM Hepes buffer, pH 7.5, dT primer coupled beads, poly A template, ^3H-UTP, and RNAse inhibitor (Promega N2515)). Compounds were serially diluted 1:3 in DMSO and aliquoted into assay plates. Equal volumes (10 μL) of water, 3× reaction mix, and enzyme in 3× assay buffer (60 mM Hepes buffer, pH 7.5, 7.5 mM MgCl2, 7.5 mM KCl, 3 mM DTT, 0.03 mg/mL BSA, 6% glycerol) were added to the diluted compound on the assay plate. Final concentration of components in 384-well assay: 0.36 nM template, 15 nM primer, 0.29 μM ^3H-UTP (0.3 μCi), 1.6 U/μL RNAse inhibitor, 7 nM NS5B enzyme, 0.01 mg/mL BSA, 1 mM DTT, and 0.33 μg/μL beads, 20 mM Hepes buffer, pH 7.5, 2.5 mM MgCl2, 2.5 mM KCl, and 0.1% DMSO.
# Reactions were allowed to proceed from 4 to 24 hours at 30° C. For 24 hour reactions, enzyme and inhibitors were pre-incubated for 24 hours before adding template and primer. Reactions were terminated by the addition of 50 mM EDTA (10 μL). After incubating for at least 15 minutes, plates were read on an Amersham LEADseeker multimodality imaging system.
# IC50 values for compounds were determined using ten different [I]. IC50 values were calculated from the inhibition using the four-parameter logistic formula y=A+((B−A)/(1+((C/x)^D))), where A and B denote minimal and maximal % inhibition, respectively, C is the IC50, D is hill slope and x represents compound concentration.
# [2] = test system: genotype 1b (Con-1) HCV replicon in Huh-7 cells; experiment: HCV replicon luciferase assay; type: cell-based; conditions: 1b replicon, Huh-7, Renilla luciferase, 3 days incubation
# Procedure: The cell lines used to evaluate compounds consist of a human hepatocyte derived cell line (Huh-7) that constitutively expresses a genotype 1b (Con-1) HCV replicon or a genotype 1b (Con-1) HCV replicon with an asparagine replacing the cysteine at amino acid 316, or a genotype 2a (JFH-1) replicon, containing a Renilla luciferase reporter gene. These cells were maintained in Dulbecco's modified Eagle medium (DMEM) containing 10% FBS, 100 U/mL penicillin/streptomycin and 1.0 mg/mL G418.
# HCV Replicon Luciferase Assay.
# To evaluate compound efficacy, titrated compounds were transferred to sterile 384-well tissue culture treated plates, and the plates were seeded with HCV replicon cells (50 μL at a density of 2.4×10^3 cells/well) in DMEM containing 4% FBS (final DMSO concentration at 0.5%). After 3 days incubation at 37° C., cells were analyzed for Renilla Luciferase activity using the EnduRen substrate (Promega cat # E6485) according to the manufacturer's directions. Briefly, the EnduRen substrate was diluted in DMEM and then added to the plates to a final concentration of 7.5 μM. The plates were incubated for at least 1 h at 37° C. then read on a Viewlux Imager (PerkinElmer) using a luminescence program. The 50% effective concentration (EC50) was calculated using the four-parameter logistic formula noted above.
# T1 sequence (Q9WMX2 2420-2992): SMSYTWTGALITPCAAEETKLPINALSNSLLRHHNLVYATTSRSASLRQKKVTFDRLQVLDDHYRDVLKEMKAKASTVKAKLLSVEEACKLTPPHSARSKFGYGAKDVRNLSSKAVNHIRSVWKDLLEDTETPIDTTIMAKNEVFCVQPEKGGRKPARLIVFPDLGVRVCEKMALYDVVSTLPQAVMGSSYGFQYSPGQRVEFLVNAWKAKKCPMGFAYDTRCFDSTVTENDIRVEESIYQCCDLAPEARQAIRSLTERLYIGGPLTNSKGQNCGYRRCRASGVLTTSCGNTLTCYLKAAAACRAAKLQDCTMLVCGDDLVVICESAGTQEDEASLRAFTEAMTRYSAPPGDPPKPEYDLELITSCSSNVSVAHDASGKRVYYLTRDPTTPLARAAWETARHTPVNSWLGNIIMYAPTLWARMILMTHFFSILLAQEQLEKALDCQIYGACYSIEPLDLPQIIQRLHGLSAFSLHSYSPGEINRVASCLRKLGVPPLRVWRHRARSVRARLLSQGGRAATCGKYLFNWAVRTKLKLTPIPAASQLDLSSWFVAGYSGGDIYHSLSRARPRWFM
structure (smiles),measurement,setting,value
"CNC(=O)c1c(-c2ccc(F)cc2)oc2ccc(-c3cc(C(=O)NC4(c5ncccn5)CC(O)C4)ccc3C)c(F)c12 (single isomer, unassigned) [Example 5a, 4-Fluoro-2-(4-fluorophenyl)-5-(5-((3-hydroxy-1-(pyrimidin-2-yl)cyclobutyl)carbamoyl)-2-methylphenyl)-N-methylbenzofuran-3-carboxamide]",IC50,[1],1280 nM
same,EC50,[2],3860 nM
"CNC(=O)c1c(-c2ccc(F)cc2)oc2ccc(-c3cc(C(=O)NC4(c5ncccn5)CC(O)C4)ccc3C)c(F)c12 (single isomer, unassigned) [Example 5b, 4-Fluoro-2-(4-fluorophenyl)-5-(5-((3-hydroxy-1-(pyrimidin-2-yl)cyclobutyl)carbamoyl)-2-methylphenyl)-N-methylbenzofuran-3-carboxamide]",IC50,[1],230 nM
same,EC50,[2],1190 nM
"CNC(=O)c1c(-c2ccc(F)cc2)oc2ccc(-c3cc(C(=O)NC4(c5ncccn5)CC(O)C4)cc(F)c3C)c(F)c12 (single isomer, unassigned) [Example 9a, 4-Fluoro-5-(3-fluoro-5-((3-hydroxy-1-(pyrimidin-2-yl)cyclobutyl)carbamoyl)-2-methylphenyl)-2-(4-fluorophenyl)-N-methylbenzofuran-3-carboxamide]",IC50,[1],570 nM
same,EC50,"[2]; Hepatitis C virus, Huh-7, 72 h",470 nM
"CNC(=O)c1c(-c2ccc(F)cc2)oc2ccc(-c3cc(C(=O)NC4(c5ncccn5)CC(O)C4)cc(F)c3C)c(F)c12 (single isomer, unassigned) [Example 9b, 4-Fluoro-5-(3-fluoro-5-((3-hydroxy-1-(pyrimidin-2-yl)cyclobutyl)carbamoyl)-2-methylphenyl)-2-(4-fluorophenyl)-N-methylbenzofuran-3-carboxamide]",IC50,[1],310 nM
same,EC50,[2],300 nM
"CNC(=O)c1c(-c2ccc(F)cc2)oc2ccc(-c3cc(C(=O)NC4(c5ncccn5)CC(OC)C4)ccc3C)c(F)c12 (single isomer, unassigned) [Example 10a, 4-Fluoro-2-(4-fluorophenyl)-5-(5-((3-methoxy-1-(pyrimidin-2-yl)cyclobutyl)carbamoyl)-2-methylphenyl)-N-methylbenzofuran-3-carboxamide]",IC50,[1],60 nM
same,EC50,[2],30 nM
"CNC(=O)c1c(-c2ccc(F)cc2)oc2ccc(-c3cc(C(=O)NC4(c5ncccn5)CC(OC)C4)ccc3C)c(F)c12 (single isomer, unassigned) [Example 10b, 4-Fluoro-2-(4-fluorophenyl)-5-(5-((3-methoxy-1-(pyrimidin-2-yl)cyclobutyl)carbamoyl)-2-methylphenyl)-N-methylbenzofuran-3-carboxamide]",IC50,[1],10 nM
same,EC50,[2],4.43 nM
"CNC(=O)c1c(-c2ccc(F)cc2)oc2ccc(-c3cc(C(=O)NC4(c5ncccn5)CC(OC)C4)cc(F)c3C)c(F)c12 (single isomer, unassigned) [Example 11a, 4-Fluoro-5-(3-fluoro-5-((3-methoxy-1-(pyrimidin-2-yl)cyclobutyl)carbamoyl)-2-methylphenyl)-2-(4-fluorophenyl)-N-methylbenzofuran-3-carboxamide]",IC50,[1],90 nM
same,EC50,[2],40 nM
"CNC(=O)c1c(-c2ccc(F)cc2)oc2ccc(-c3cc(C(=O)NC4(c5ncccn5)CC(OC)C4)cc(F)c3C)c(F)c12 (single isomer, unassigned) [Example 11b, 4-Fluoro-5-(3-fluoro-5-((3-methoxy-1-(pyrimidin-2-yl)cyclobutyl)carbamoyl)-2-methylphenyl)-2-(4-fluorophenyl)-N-methylbenzofuran-3-carboxamide]",IC50,[1],30 nM
same,EC50,[2],4.56 nM
"CNC(=O)c1c(-c2ccc(F)cc2)oc2ccc(-c3cc(C(=O)NC4(c5ncccn5)CC(O)C4)c(OC)cc3C)c(F)c12 (single isomer, unassigned) [Example 12a, 4-Fluoro-2-(4-fluorophenyl)-5-(5-((3-hydroxy-1-(pyrimidin-2-yl)cyclobutyl)carbamoyl)-4-methoxy-2-methylphenyl)-N-methylbenzofuran-3-carboxamide]",IC50,[1],760 nM
same,EC50,[2],430 nM
"CNC(=O)c1c(-c2ccc(F)cc2)oc2ccc(-c3cc(C(=O)NC4(c5ncccn5)CC(O)C4)c(OC)cc3C)c(F)c12 (single isomer, unassigned) [Example 12b, 4-Fluoro-2-(4-fluorophenyl)-5-(5-((3-hydroxy-1-(pyrimidin-2-yl)cyclobutyl)carbamoyl)-4-methoxy-2-methylphenyl)-N-methylbenzofuran-3-carboxamide]",IC50,[1],210 nM
same,EC50,[2],140 nM
"CNC(=O)c1c(-c2ccc(F)cc2)oc2ccc(-c3cc(C(=O)NC4(c5ncccn5)CC(OC)C4)c(OC)cc3C)c(F)c12 (single isomer, unassigned) [Example 13a, 4-Fluoro-2-(4-fluorophenyl)-5-(4-methoxy-5-((3-methoxy-1-(pyrimidin-2-yl)cyclobutyl)carbamoyl)-2-methylphenyl)-N-methylbenzofuran-3-carboxamide]",IC50,[1],30 nM
same,EC50,[2],30 nM
CCCc1cc2oc(-c3ccc(F)cc3)c(C(=O)NC)c2cc1-c1ccc(OC)c(C(=O)NC2(c3ncccn3)CC(OC(F)F)C2)c1 (centres unmarked) [Example 37],EC50,"[2]; Hepatitis C virus, Huh-7, 72 h",6.08 nM
"CCCc1cc2oc(-c3ccc(F)cc3)c(C(=O)NC)c2cc1-c1cc(C(=O)NC2(c3ncccn3)CC(OC(F)F)C2)c(OC)cc1C (centres unmarked) [Example 39, 5-(5-((3-(Difluoromethoxy)-1-(pyrimidin-2-yl)cyclobutyl)carbamoyl)-4-methoxy-2-methylphenyl)-2-(4-fluorophenyl)-N-methyl-6-propylbenzofuran-3-carboxamide]",EC50,"[2]; Hepatitis C virus, Huh-7, 72 h",20 nM
"CNC(=O)c1c(-c2ccc(F)cc2)oc2cc(CCC(F)(F)F)c(-c3cc(C(=O)NC4(c5ncccn5)CC(OC(F)F)C4)c(OC)cc3C)cc12 (centres unmarked) [Example 41, 5-(5-((3-(Difluoromethoxy)-1-(pyrimidin-2-yl)cyclobutyl)carbamoyl)-4-methoxy-2-methylphenyl)-2-(4-fluorophenyl)-N-methyl-6-(3,3,3-trifluoropropyl)benzofuran-3-carboxamide]",EC50,"[2]; Hepatitis C virus, Huh-7, 72 h",20 nM
"CCOc1cc2oc(-c3ccc(F)cc3)c(C(=O)NC)c2cc1-c1cccc(C(=O)NC2(c3ncon3)CC(OC(F)F)C2)c1 (centres unmarked) [Example 70, 5-(3-((3-(Difluoromethoxy)-1-(1,2,4-oxadiazol-3-yl)cyclobutyl)carbamoyl)phenyl)-6-ethoxy-2-(4-fluorophenyl)-N-methylbenzofuran-3-carboxamide]",EC50,"[2]; Hepatitis C virus, Huh-7, 72 h",6.47 nM
